{"source": "ChEMBL document CHEMBL1201862", "about": "“PubChem BioAssay data set” (2004)", "target": "Envelope glycoprotein gp160 (Human immunodeficiency virus 1, UniProt Q6QLK5)", "sequence (Q6QLK5 whole entry, the tested form may be a part)": "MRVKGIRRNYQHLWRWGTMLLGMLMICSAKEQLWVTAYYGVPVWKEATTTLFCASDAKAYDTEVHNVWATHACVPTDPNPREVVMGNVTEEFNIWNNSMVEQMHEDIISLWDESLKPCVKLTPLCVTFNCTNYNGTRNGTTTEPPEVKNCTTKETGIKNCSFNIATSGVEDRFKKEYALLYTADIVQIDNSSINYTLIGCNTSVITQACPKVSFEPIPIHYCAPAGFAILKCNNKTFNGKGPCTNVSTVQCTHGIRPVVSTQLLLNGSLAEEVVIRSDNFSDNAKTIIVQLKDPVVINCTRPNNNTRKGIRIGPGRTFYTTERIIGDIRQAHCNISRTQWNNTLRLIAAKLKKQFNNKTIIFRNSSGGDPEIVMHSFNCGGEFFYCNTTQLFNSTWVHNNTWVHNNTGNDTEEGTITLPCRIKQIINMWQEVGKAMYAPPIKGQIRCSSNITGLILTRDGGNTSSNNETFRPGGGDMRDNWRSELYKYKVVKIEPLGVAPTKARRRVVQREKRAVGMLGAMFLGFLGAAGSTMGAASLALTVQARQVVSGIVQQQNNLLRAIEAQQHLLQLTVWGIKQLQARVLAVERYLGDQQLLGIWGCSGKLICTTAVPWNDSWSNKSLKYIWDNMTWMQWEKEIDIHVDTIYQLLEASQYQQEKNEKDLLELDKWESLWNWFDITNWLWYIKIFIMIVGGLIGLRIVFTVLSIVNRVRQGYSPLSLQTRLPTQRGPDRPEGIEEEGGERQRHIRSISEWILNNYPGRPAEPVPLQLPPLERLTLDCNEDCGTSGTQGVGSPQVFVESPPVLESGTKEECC", "assay": "cell-free HIV fusion peptide-binding blockers – biochemical, uHTS, fluorescence dequenching, […] (AID 1986)", "note": "The source made the active and inactive calls. No stated cut-off is given here; in the data, actives have a measured IC50 and inactives only a lower limit."}
{"compound": "COc1cc(/C=C2\\SC(NS(=O)(=O)c3ccc(C)cc3)=NC2=O)c([N+](=O)[O-])cc1OC", "values": [{"measurement": "IC50", "result": "17.1 µM (active)"}]}
{"compound": "O=C(O)CCn1cc(/C=C/C(=O)c2ccc(Cl)cc2)c(-c2cccc(Br)c2)n1", "values": [{"measurement": "IC50", "result": "28 µM (active)"}]}
